In BindingDB's records for doi:10.3109/14756366.2013.765415 (Universidad de la República, 2014) one finds IC50 data, which are given here for three compounds.

Assay [1] has as its target Triosephosphate isomerase (Homo sapiens, UniProt P60174). As to the kind of experiment: Inhibition Assay. The note with it: pH 7.4; 37 °C. The procedure: (§1) The reaction mixture (1 mL, pH 7.4) contained 100mM triethanolamine, 10mM EDTA, 0.2mM NADH, 1mM glyceraldehyde 3-phosphate (GAP) and 0.9 units of α-glycerol phosphate dehydrogenase (α-GPDH). The reaction was initiated by addition of 5 ng/mL of the corresponding TIM or the corresponding TIM pre-incubated with the studied compounds. In these cases, inhibition assays, the enzymes were pre-incubated for 2 h at 37 °C with the studied compounds.

Assay [2] deals with Triosephosphate isomerase, glycosomal (Trypanosoma brucei brucei, UniProt P04789). Description: Inhibition Assay. The note with it: pH 7.4; 37 °C. The procedure:
as §1

Triosephosphate isomerase, glycosomal, sequence (P04789 whole entry): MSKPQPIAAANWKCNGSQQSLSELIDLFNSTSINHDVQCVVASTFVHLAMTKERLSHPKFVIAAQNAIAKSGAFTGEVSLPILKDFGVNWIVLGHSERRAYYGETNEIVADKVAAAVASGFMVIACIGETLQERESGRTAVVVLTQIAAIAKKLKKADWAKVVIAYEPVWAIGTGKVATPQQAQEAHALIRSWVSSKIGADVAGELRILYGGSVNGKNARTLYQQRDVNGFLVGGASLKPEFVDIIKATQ

The IC50 is the midpoint of a concentration-inhibition curve. The low end stands for inhibition by little substance, the high end for a need for much substance. `Cc1ccc(-c2nsc(=O)[nH]2)cc1` [TIM inhibitor, 1] registered an IC50 in assay [1] of 100 µM.

In turn, `Oc1ccc2nc3cc(Cl)c(Cl)cc3nc2c1` [TIM inhibitor, 2] gave an IC50 in assay [1] of more than 100 µM.

Turning to `O=C1C(=Cc2ccc([N+](=O)[O-])o2)C(=O)N(Cc2ccccc2)SN1Cc1ccccc1` [TIM inhibitor, 3], the IC50 in assay [1] is more than 100 µM; in assay [2], 34 µM.
